Source: patent US5804410A, “Nucleic acid sequence encoding trypsin-like enzyme and process for producing the enzyme” (Teijin Limited, priority 1994, dated 1998)
Read-outs that look alike come from different tables or passages of the source. *1 amine or outer side, *2 acyl side, *3 side chain or, on linkers, in order; H or OH if unused. Where a SMILES comes first, the peptide text is derived from it. The star is where a group is joined. AMC = Cc1cc(=O)oc2cc(N*)ccc12; Suc = O=C(CCC(=O)[*:2])[*:1]; Boc = CC(C)(C)OC(=O)*

Experiments:
Assay type in all cases: biochemical
trypsin-like enzyme [1] = molecular target: T1, trypsin-like enzyme (Homo sapiens, UniProt O60235); assay: Substrate specificity, synthetic MCA substrates (assay method of trypsin activity); conditions: pH 8.6, 0.1M Tris-HCl; activity on Boc-Phe-Ser-Arg-MCA taken to be 100%
T1 construct: from tissue; host or cells: cough phlegm (sputum) of patients with chronic disease of the respiratory tract
T1 sequence (O60235 187-418): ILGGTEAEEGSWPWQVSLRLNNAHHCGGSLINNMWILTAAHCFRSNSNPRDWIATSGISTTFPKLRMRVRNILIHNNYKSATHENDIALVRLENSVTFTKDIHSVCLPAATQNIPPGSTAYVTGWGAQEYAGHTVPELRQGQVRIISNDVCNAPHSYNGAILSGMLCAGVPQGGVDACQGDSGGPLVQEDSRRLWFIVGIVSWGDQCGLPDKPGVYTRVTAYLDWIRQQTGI

[2] = molecular target: T2, human neutrophile elastase (Homo sapiens, UniProt P08246); assay: Substrate specificity, synthetic MCA substrates
T2 sequence (P08246 30-267): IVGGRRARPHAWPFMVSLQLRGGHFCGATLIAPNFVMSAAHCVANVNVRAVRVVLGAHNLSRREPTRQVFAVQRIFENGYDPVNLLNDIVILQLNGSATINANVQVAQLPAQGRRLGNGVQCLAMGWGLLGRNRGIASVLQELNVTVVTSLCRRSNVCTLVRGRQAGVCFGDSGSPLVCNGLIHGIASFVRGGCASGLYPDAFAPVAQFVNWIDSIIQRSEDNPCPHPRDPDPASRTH

[3] = tested on: rat mast cell-derived tryptase; assay: Effect of protease inhibitors on enzymatic activity; conditions: inhibitor 10 μM
[4] = molecular target: T3, human-derived neutrophile elastase (Homo sapiens, UniProt P08246); assay: as above
T3 sequence (P08246 30-267): T2 sequence (P08246 30-267)

trypsin-like enzyme [5] = molecular target: T1, trypsin-like enzyme; assay: as above
[6] = tested on: rat mast cell-derived tryptase; assay: Substrate specificity, synthetic MCA substrates; conditions: activity on Suc-Phe-Ser-Arg-MCA taken to be 100%
[7] = pH 8.6, activity on Suc-Ala-Pro-Ala-MCA taken to be 100%

## Cc1cc(=O)oc2cc(NC(=O)[C@H](C)NC(=O)[C@@H]3CCCN3C(=O)[C@H](C)NC(=O)CCC(=O)O)ccc12 [Suc-Ala-Pro-Ala-MCA] (Suc-Ala-Pro-Ala-{AMC})
trypsin-like enzyme [1]
  Substrate digestion ratio (%) Trypsin-like enzyme pH 8.6: 0%
[2]; [7]
  Substrate digestion ratio (%) Neutrophile elastase pH 8.6: 100%

## elastinol
[3]
  Inhibition (%) Tryptase (derived from rat mast cell): 53.0%
[4]; inhibitor 10 μM
  Inhibition (%) Neutrophile elastase (human): 0%
trypsin-like enzyme [5]; Example 5: inhibitors 10 μM, PMSF 1 mM
  Inhibition of trypsin-like enzyme (in words): not inhibited
trypsin-like enzyme [5]; inhibitor 10 μM
  Inhibition (%) Trypsin-like protease (human): 0%

## CC[C@H](C)[C@H](NC(=O)OC(C)(C)C)C(=O)N[C@@H](CCC(N)=O)C(=O)NCC(=O)N[C@@H](CCCNC(=N)N)C(=O)Nc1ccc2c(C)cc(=O)oc2c1 [Boc-Ile-Gln-Gly-Arg-MCA] (Boc-IQGR-{AMC})
trypsin-like enzyme [1]
  Substrate digestion ratio (%) Trypsin-like enzyme pH 8.6: 13.1%
[2]; [7]
  Substrate digestion ratio (%) Neutrophile elastase pH 8.6: 0.3%
[6]
  Substrate digestion ratio (%) Rat mast cell Tryptase pH 8.6: 149.0%

## Cc1cc(=O)oc2cc(NC(=O)[C@@H]3CCCN3C(=O)CNC(=O)[C@H](CC(C)C)NC(=O)[C@@H]3CCCN3C(=O)CNC(=O)CCC(=O)O)ccc12 [Suc-Gly-Pro-Leu-Gly-Pro-MCA] (Suc-GPLGP-{AMC})
trypsin-like enzyme [1]
  Substrate digestion ratio (%) Trypsin-like enzyme pH 8.6: 0%
[2]; [7]
  Substrate digestion ratio (%) Neutrophile elastase pH 8.6: 0%

## Cc1cc(=O)oc2cc(NC(=O)[C@@H](N)CC(C)C)ccc12 [Leu-MCA]
trypsin-like enzyme [1]
  Substrate digestion ratio (%) Trypsin-like enzyme pH 8.6: 0%
[2]; [7]
  Substrate digestion ratio (%) Neutrophile elastase pH 8.6: 0.2%

## Cc1cc(=O)oc2cc(NC(=O)[C@H](CCCNC(=N)N)NC(=O)[C@H](C)NC(=O)[C@H](CCC(N)=O)NC(=O)OC(C)(C)C)ccc12 [Boc-Gln-Ala-Arg-MCA] (Boc-Gln-Ala-Arg-{AMC})
trypsin-like enzyme [1]
  Substrate digestion ratio (%) Trypsin-like enzyme pH 8.6: 52.2%
[2]; [7]
  Substrate digestion ratio (%) Neutrophile elastase pH 8.6: 0.3%

## Cc1cc(=O)oc2cc(NC(=O)[C@H](CCCNC(=N)N)NC(=O)CNC(=O)[C@H](CCC(N)=O)NC(=O)OC(C)(C)C)ccc12 [Boc-Gln-Gly-Arg-MCA] (Boc-Gln-Gly-Arg-{AMC})
trypsin-like enzyme [1]
  Substrate digestion ratio (%) Trypsin-like enzyme pH 8.6: 13.8%
[2]; [7]
  Substrate digestion ratio (%) Neutrophile elastase pH 8.6: 0.2%
[6]
  Substrate digestion ratio (%) Rat mast cell Tryptase pH 8.6: 4.6%

## O=S(=O)(F)Cc1ccccc1 [PMSF, phenylmethylsulfonyl fluoride]
[4]; 1000 µM
  Inhibition (%) Neutrophile elastase (human): 93.6%
trypsin-like enzyme [5]
  Inhibition of trypsin-like enzyme (in words): inhibited
trypsin-like enzyme [5]; 1000 µM
  Inhibition (%) Trypsin-like protease (human): 100%

## Cc1cc(=O)oc2cc(NC(=O)[C@H](CCCNC(=N)N)NC(=O)[C@H](CO)NC(=O)[C@H](Cc3ccccc3)NC(=O)OC(C)(C)C)ccc12 [Boc-Phe-Ser-Arg-MCA] (Boc-Phe-Ser-Arg-{AMC})
trypsin-like enzyme [1]
  Substrate digestion ratio (%) Trypsin-like enzyme pH 8.6: 100%
[2]; [7]
  Substrate digestion ratio (%) Neutrophile elastase pH 8.6: 0.4%
[6]
  Substrate digestion ratio (%) Rat mast cell Tryptase pH 8.6: 100%

## Cc1cc(=O)oc2cc(NC(=O)[C@H](CCCCN)NC(=O)[C@H](CC(C)C)NC(=O)[C@@H](NC(=O)OC(C)(C)C)C(C)C)ccc12 [Boc-Val-Leu-Lys-MCA] (Boc-Val-Leu-Lys-{AMC})
trypsin-like enzyme [1]
  Substrate digestion ratio (%) Trypsin-like enzyme pH 8.6: 3.9%
[2]; [7]
  Substrate digestion ratio (%) Neutrophile elastase pH 8.6: 0.1%
[6]
  Substrate digestion ratio (%) Rat mast cell Tryptase pH 8.6: 6.1%

## Cc1cc(=O)oc2cc(NC(=O)[C@H](CCCNC(=N)N)NC(=O)[C@@H]3CCCN3C(=O)[C@@H](NC(=O)OC(C)(C)C)C(C)C)ccc12 [Boc-Val-Pro-Arg-MCA] (Boc-Val-Pro-Arg-{AMC})
trypsin-like enzyme [1]
  Substrate digestion ratio (%) Trypsin-like enzyme pH 8.6: 74.6%
[2]; [7]
  Substrate digestion ratio (%) Neutrophile elastase pH 8.6: 0.2%
[6]
  Substrate digestion ratio (%) Rat mast cell Tryptase pH 8.6: 50.6%

## Cc1cc(=O)oc2cc(NC(=O)[C@H](Cc3ccccc3)NC(=O)[C@@H]3CCCN3C(=O)[C@H](C)NC(=O)[C@H](C)NC(=O)CCC(=O)O)ccc12 [Suc-Ala-Ala-Pro-Phe-MCA] (Suc-AAPF-{AMC})
trypsin-like enzyme [1]
  Substrate digestion ratio (%) Trypsin-like enzyme pH 8.6: 0%
[2]
  Substrate digestion ratio (%) Neutrophile elastase pH 8.6: 0.1%
[6]
  Substrate digestion ratio (%) Rat mast cell Tryptase pH 8.6: 2.0%
